Measured values from BindingDB's records for patent US9187487 (Principia Biopharma, 2015).

Target: T1, Tyrosine-protein kinase JAK3 [781-1124] (Homo sapiens, UniProt P52333)
T1 construct: 781-1124
Test: Phosphorylation Assay
Details: pH 7.5
Experimental: Phosphorylation of the appropriate peptide substrate (fluorescently labeled Srctide) by recombinant JAK3 (catalytic domain, aa 781-1124) was measured in the presence and absence of different concentrations of test compounds. Test compound, enzyme, fluorescently labeled substrate, and cofactors (ATP and Mg2+) were combined in a well of a microtiter plate and incubated for 2 hours at 25° C. The composition of the reaction buffer was 100 mM HEPES pH 7.5, 5 mM MgCl2, 0.01% Triton-X 100, 0.1% Bovine Serum Albumin, and 1% DMSO. Enzyme concentration in the final reaction mixture was 0.5 nM while peptide substrate was at 1 uM. ATP was used at 1xKm concentration corresponding to 2 uM. Serial dilutions (3-fold steps) of compounds were prepared in DMSO. At the end of the incubation, the reaction was stopped by the addition of 20 mM EDTA. Substrate and product (i.e. phosphorylated substrate) were separated electrophoretically and both were quantified by fluorescence intensity.

T1 sequence (P52333 781-1124): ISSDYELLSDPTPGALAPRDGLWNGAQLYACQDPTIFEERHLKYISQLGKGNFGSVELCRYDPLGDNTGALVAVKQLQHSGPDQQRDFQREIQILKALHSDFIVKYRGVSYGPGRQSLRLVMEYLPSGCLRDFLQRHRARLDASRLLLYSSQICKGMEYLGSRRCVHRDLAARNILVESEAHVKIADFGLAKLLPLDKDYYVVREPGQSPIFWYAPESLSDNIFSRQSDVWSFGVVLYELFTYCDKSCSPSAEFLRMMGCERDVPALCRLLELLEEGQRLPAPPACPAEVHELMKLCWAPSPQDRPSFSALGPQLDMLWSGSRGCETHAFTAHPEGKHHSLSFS

Row | IC50 [µM] | SMILES
1 | 0.19 | CC(C)C(=O)c1c[nH]c2ncc(-c3cccc(C=C(C#N)C(=O)N(C)C)c3)nc12 [US9187487, 37]
2 | 0.004 | CC(C)(C)C(=O)c1c[nH]c2ncc(Nc3ccc(C=C4SC(=O)NC4=O)cc3)nc12 [US9187487, 65]
